Test [1] deals with T1, Gastrin/cholecystokinin type B receptor (Mus musculus, UniProt P56481).
T1 sequence (P56481 whole entry): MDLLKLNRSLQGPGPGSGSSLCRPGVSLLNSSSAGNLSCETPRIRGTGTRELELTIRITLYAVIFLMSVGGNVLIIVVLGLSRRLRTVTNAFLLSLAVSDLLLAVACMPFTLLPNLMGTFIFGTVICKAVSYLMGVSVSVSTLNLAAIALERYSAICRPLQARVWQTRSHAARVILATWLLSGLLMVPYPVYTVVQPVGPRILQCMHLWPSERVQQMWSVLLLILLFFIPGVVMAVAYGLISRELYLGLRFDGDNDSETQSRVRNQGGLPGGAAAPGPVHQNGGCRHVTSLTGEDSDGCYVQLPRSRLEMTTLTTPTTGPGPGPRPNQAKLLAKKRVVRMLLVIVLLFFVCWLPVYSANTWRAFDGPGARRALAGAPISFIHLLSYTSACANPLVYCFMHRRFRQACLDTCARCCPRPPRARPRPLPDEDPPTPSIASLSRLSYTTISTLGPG
As to the kind of experiment: Binding affinity towards CCK-B receptor in mouse cerebral cortex membrane using [125I]bolton assay. Format: cell membranes.

Test [2] addresses T2, Cholecystokinin receptor type A (Rattus norvegicus, UniProt P30551).
T2 sequence (P30551 whole entry): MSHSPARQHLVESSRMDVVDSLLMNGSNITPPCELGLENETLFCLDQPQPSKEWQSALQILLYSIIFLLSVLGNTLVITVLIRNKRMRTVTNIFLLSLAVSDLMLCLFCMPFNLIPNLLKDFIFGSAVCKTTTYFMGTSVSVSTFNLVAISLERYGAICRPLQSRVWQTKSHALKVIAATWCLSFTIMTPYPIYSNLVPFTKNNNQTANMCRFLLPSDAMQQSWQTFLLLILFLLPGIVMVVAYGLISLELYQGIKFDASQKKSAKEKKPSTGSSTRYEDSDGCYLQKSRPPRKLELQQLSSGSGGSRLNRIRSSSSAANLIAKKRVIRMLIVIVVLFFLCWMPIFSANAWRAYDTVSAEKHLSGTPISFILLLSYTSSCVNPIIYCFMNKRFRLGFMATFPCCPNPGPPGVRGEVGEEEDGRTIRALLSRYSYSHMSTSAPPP
As to the kind of experiment: Binding affinity towards CCK-A receptor in rat pancreas membrane using Hunter labelled CCK-8S assay. Format: cell membranes.

On to `C[C@](Cc1c[nH]c2ccccc12)(NC(=O)OC1C2CC3CC(C2)CC1C3)C(=O)N[C@@H](CC(=O)O)Cc1ccc(N=[N+]=[N-])c(I)c1` (some centres undefined), for which the Ki in test [1] stood at 0.00088 µM; in test [2] it was 0.392 µM.
Taken in the same sequence, the figures for `C[C@](Cc1c[nH]c2ccccc12)(NC(=O)OC1C2CC3CC(C2)CC1C3)C(=O)N[C@@H](CC(=O)O)Cc1ccc(N)c(I)c1` (some centres undefined) were 0.00052 µM and 0.158 µM.

(Values after ChEMBL document CHEMBL1128058, “Synthesis of novel iodinated radioligands with high affinity and selectivity for CCK-B/gastrin receptors” (Bioorg Med Chem Lett, 1995).)
